Laboratory results as given in the supplement of paper PMC10307832.

Tests used:
Experiment in all cases: relative viability (nuclei count vs DMSO), 5 days (fraction); higher = more cells survive
QS11 + Bortezomib = compound: C1CC2=C(C1)C=C(C=C2)OC3=NC(=C4C(=N3)N(C=N4)CC5=CC=C(C=C5)C6=CC=CC=C6)N[C@@H](CC7=CC=CC=C7)CO [QS11] + CC(C)C[C@H](NC(=O)[C@H](Cc1ccccc1)NC(=O)c1cnccn1)B(O)O [Bortezomib] (partner 0.002 µM)
Method in brief: (§1)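 After 5 days of treatment, lung cancer cells in 1536-well plates were fixed and stained in a single step (final 0.05% Triton X-100, 1% formaldehyde, 1 ug/ml Hoechst) and their nuclei counted on 4× images. Treatment had been applied by pin tool the day after seeding as one drug alone or as a fixed anchor-drug dose with five library-drug doses (not always all listed) in √10 steps. Relative viability is the nuclei count of treated wells divided by that of vehicle wells, and values are medians of duplicate plates.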

QS11 + Linsitinib = compound: C1CC2=C(C1)C=C(C=C2)OC3=NC(=C4C(=N3)N(C=N4)CC5=CC=C(C=C5)C6=CC=CC=C6)N[C@@H](CC7=CC=CC=C7)CO [QS11] + C[C@]1(O)C[C@@H](c2nc(-c3ccc4ccc(-c5ccccc5)nc4c3)c3c(N)nccn32)C1 [Linsitinib] (partner 1 µM)
Method in brief: as §1

AZ628 + Palbociclib = compound: CC1=C(C=C(C=C1)NC(=O)C2=CC(=CC=C2)C(C)(C)C#N)NC3=CC4=C(C=C3)N=CN(C4=O)C [AZ628] + CC(=O)c1c(C)c2cnc(Nc3ccc(N4CCNCC4)cn3)nc2n(C2CCCC2)c1=O [Palbociclib] (partner 0.5 µM)
Method in brief: as §1

[1] = compound: C[As](C)SC[C@H](NC(=O)CC[C@H](N)C(=O)O)C(=O)NCC(=O)O [Darinaparsin] + Nc1nc2[nH]cc(CCc3ccc(C(=O)N[C@@H](CCC(=O)O)C(=O)O)cc3)c2c(=O)[nH]1 [Pemetrexed] (partner 0.2 µM)
Method in brief: as §1

Cell Line	relative viability (QS11 + Bortezomib; first compound 0.08 µM)	relative viability (QS11 + Bortezomib; first compound 0.253 µM)	relative viability (QS11 + Bortezomib; first compound 0.8 µM)	relative viability (QS11 + Bortezomib; first compound 2.53 µM)	relative viability (QS11 + Bortezomib; first compound 8 µM)	relative viability (QS11 + Linsitinib; first compound 0.08 µM)	relative viability (QS11 + Linsitinib; first compound 0.253 µM)	relative viability (QS11 + Linsitinib; first compound 0.8 µM)	relative viability (QS11 + Linsitinib; first compound 2.53 µM)	relative viability (QS11 + Linsitinib; first compound 8 µM)	relative viability (AZ628 + Palbociclib; first compound 0.08 µM)	relative viability (AZ628 + Palbociclib; first compound 0.253 µM)	relative viability (AZ628 + Palbociclib; first compound 0.8 µM)	relative viability (AZ628 + Palbociclib; first compound 2.53 µM)	relative viability (AZ628 + Palbociclib; first compound 8 µM)	relative viability ([1]; first compound 0.08 µM)	relative viability ([1]; first compound 0.8 µM)	relative viability ([1]; first compound 2.53 µM)	relative viability ([1]; first compound 8 µM)
NCI-H1755	0.953	0.893	0.605	0.76	0.61	1.07	0.577	0.595	0.814	0.871	0.449	0.461	0.446	0.435	0.397	0.552	0.389	0.411	0.656
NCI-H1792		1.06	0.684	1.01	1.07		0.559	0.43	0.537	0.68	0.66	0.632	0.52	0.558	0.388	1.14	0.829		0.921
NCI-H1915	0.985	1.08		0.967	0.979	1.05	1.14		1.16	1.03	0.398	0.392	0.316	0.316	0.205	0.495	0.446	0.494	0.662
NCI-H1975	0.333	0.403	0.541	0.364	0.3	1.1	1.04	0.926	1.31	1.39	0.504	0.485	0.548	0.534	0.233	0.328	0.301	0.291	0.319
NCI-H1993	0.959	1	1.04	1.35	0.998	0.622	0.718	0.682	0.7	0.857	0.685	0.548	0.496	0.595	0.266	0.617	0.66	0.599	0.64
NCI-H2009	0.999	0.898	0.739	0.802	0.755	1.25	1.26	1.13	1.03	0.95	0.201	0.177	0.141	0.125	0.174	1.09	1.07	1	1.08
NCI-H2023	0.917	0.996	0.877	0.994	0.898	0.729	0.545	0.57	0.713	0.803	0.45	0.381	0.239	0.406	0.153	0.335	0.231	0.202	0.227
NCI-H2085	0.952	1.03	1.16	1.06	1	0.885	1.19	1.01	0.959	1.07	0.478	0.445	0.496	0.493	0.43	0.881	0.962	0.854	0.961
NCI-H2087	0.766	0.776	0.677	0.636	0.48	1.01	1.15	0.845	0.655	0.708	0.194	0.157	0.165	0.149	0.173	0.656	0.671	0.667	0.616
NCI-H2126	1.1	1.07	0.882	1.22	0.904	0.71	0.814	0.679	0.683	0.643	0.351	0.325	0.323	0.383	0.32	0.74	0.594	0.666	0.805
NCI-H2228	0.974	1.04	1.15	1.26	1.12	0.658	0.555	0.809	0.834	0.797	0.763	0.605	0.843	0.737	0.619	0.379	0.322	0.325	0.427
NCI-H2347	1.11	1.19	0.757	0.997	1.04	1.04	0.955	0.777	0.712	1.11	0.468	0.352	0.266	0.403	0.344	0.444	0.396	0.408	0.477
NCI-H2405	0.926	0.946	0.895	1.03	1.03	0.893	0.925	0.946	0.942	1.17	0.4	0.4	0.347	0.35	0.353	1.24	0.872	1.07	1.14
NCI-H3122	1.03	1.1	0.67	1.07	0.864	1	1.17	0.919	1.17	0.842	0.159	0.144	0.142	0.144	0.137	0.195	0.193	0.197	0.222
PC-3 [JPC-3]	0.827	0.88	0.767	0.828	0.678	0.939	0.978	0.964	0.947	0.97	0.505	0.583	0.583	0.597	0.6	1.43	1.02	1.04	1.04
PC-14	0.7	0.887	0.979	0.741	0.731	1.04	1.08	0.758	0.906	0.901	0.521	0.517	0.343	0.455	0.219	0.134	0.131	0.128	0.143
RERF-LC-KJ	1.05	1.1	0.956	0.932	0.941	0.933	0.929	0.854	0.868	0.782	1.07	1.09	0.994	1.13	0.843	0.513	0.441	0.448	0.484
